Here are results for 1 compound from article PMC7486443, “Generation of Phenothiazine with Potent Anti-TLK1 Activity for Prostate Cancer Therapy” (iScience, 2020).

Among the targets are CAMK2G (Homo sapiens, UniProt Q13555); CLK1 (Homo sapiens, UniProt P49759); CSNK1G2 (Homo sapiens, UniProt P78368); DMPK (Homo sapiens, UniProt Q09013); EGFR(L858R,T790M) (Homo sapiens, UniProt P00533, L858R/T790M); EGFR(T790M) (Homo sapiens, UniProt P00533, T790M); EPHA8 (Homo sapiens, UniProt P29322); EPHB3 (Homo sapiens, UniProt P54753); LATS1 (Homo sapiens, UniProt O95835); MAP4K3 (Homo sapiens, UniProt Q8IVH8); NEK11 (Homo sapiens, UniProt Q8NG66); PIK3C2G (Homo sapiens, UniProt O75747); PRKG1 (Homo sapiens, UniProt Q13976).

What all share (assay): biochemical
Common to all, as to design: DiscoverX KINOMEscan scanMAX competition binding panel, single concentration, percent of control; remaining binding: dose or concentration left out as unconfirmed
Conditions in all cases: KINOMEscan binding, percent of control; read-out: Table S4_SCANMAX REPORT - related to Fig. 1 / Percent Control

In a further experiment the target is T1, ABL1-phosphorylated (Homo sapiens, UniProt P00519).
T1 construct: phosphorylated

Another experiment concerns the target T2, CDK11 (Homo sapiens, UniProt Q9BWU1).
T2 construct: gene CDK19

A further experiment addresses T3, DMPK2 (Homo sapiens, UniProt Q6DT37).
T3 construct: gene CDC42BPG

In the next experiment the target is T4, YANK3 (Homo sapiens, UniProt Q86UX6).
T4 construct: gene STK32C

A further experiment has as its target T5, p38-delta (Homo sapiens, UniProt O15264).
T5 construct: gene MAPK13

T5 sequence (O15264 whole entry): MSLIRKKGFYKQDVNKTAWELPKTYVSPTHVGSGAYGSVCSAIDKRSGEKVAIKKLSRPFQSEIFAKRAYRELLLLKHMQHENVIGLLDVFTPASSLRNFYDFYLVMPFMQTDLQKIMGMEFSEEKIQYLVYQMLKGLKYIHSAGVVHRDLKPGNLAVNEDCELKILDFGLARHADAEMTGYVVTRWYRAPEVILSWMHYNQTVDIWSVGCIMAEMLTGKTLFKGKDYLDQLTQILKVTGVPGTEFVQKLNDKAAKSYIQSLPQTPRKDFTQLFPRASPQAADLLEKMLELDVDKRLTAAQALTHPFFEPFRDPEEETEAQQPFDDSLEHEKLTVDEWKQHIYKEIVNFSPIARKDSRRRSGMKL
DMPK, sequence (Q09013 whole entry): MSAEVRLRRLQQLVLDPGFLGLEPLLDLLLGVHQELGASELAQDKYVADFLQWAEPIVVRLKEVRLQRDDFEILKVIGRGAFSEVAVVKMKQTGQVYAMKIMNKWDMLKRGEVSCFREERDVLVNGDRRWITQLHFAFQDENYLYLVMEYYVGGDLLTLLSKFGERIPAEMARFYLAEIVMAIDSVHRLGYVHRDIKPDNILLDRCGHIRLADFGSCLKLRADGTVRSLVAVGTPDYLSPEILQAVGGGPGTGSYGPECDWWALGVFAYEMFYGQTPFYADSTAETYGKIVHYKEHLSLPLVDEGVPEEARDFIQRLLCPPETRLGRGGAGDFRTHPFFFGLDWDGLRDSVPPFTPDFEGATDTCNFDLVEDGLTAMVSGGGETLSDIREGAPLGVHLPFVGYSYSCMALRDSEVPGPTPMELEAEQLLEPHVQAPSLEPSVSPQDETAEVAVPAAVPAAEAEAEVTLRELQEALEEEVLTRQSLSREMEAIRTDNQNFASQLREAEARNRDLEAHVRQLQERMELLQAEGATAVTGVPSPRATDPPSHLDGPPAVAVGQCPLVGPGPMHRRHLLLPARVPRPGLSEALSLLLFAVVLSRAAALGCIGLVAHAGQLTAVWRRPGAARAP
PRKG1, sequence (Q13976 whole entry): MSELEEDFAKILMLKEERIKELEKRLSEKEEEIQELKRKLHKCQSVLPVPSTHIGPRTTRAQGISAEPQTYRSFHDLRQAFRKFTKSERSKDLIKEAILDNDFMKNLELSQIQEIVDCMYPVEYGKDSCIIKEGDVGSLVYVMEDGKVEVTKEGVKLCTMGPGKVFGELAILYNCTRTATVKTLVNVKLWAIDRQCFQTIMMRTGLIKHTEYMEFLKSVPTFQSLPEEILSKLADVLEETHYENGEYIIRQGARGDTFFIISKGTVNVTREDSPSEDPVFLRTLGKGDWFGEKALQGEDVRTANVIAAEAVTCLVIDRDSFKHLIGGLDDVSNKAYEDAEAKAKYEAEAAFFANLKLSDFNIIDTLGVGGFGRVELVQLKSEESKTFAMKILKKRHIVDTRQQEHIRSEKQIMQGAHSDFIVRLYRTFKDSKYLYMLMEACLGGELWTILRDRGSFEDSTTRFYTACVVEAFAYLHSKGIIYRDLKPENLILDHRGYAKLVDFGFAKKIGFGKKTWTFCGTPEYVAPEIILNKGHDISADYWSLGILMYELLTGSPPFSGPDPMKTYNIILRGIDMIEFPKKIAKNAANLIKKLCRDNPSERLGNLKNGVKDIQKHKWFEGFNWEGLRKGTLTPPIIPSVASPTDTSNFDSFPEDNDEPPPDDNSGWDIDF
MAP4K3, sequence (Q8IVH8 whole entry): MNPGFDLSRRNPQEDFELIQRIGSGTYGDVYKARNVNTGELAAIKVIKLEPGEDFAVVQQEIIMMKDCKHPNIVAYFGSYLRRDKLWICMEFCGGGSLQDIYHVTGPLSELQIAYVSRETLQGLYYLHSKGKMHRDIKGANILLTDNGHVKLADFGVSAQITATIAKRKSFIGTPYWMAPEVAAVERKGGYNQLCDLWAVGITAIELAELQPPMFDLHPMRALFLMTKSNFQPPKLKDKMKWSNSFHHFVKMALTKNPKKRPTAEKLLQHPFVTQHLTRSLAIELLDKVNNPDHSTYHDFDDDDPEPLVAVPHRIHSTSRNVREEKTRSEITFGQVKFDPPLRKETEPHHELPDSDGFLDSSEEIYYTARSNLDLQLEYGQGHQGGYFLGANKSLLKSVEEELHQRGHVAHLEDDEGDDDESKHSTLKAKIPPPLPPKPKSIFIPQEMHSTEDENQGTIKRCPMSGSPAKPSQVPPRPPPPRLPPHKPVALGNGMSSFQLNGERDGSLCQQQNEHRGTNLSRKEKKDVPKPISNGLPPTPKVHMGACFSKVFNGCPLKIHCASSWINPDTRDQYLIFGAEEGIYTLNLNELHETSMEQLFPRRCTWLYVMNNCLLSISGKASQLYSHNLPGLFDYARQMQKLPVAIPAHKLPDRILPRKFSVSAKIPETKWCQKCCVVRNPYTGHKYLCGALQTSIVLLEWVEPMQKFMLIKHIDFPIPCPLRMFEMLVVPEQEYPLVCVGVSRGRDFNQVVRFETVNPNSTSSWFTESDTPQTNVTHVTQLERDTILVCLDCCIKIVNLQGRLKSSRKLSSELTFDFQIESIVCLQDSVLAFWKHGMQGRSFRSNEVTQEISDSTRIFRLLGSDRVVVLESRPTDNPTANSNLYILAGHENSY
T3 sequence (Q6DT37 whole entry): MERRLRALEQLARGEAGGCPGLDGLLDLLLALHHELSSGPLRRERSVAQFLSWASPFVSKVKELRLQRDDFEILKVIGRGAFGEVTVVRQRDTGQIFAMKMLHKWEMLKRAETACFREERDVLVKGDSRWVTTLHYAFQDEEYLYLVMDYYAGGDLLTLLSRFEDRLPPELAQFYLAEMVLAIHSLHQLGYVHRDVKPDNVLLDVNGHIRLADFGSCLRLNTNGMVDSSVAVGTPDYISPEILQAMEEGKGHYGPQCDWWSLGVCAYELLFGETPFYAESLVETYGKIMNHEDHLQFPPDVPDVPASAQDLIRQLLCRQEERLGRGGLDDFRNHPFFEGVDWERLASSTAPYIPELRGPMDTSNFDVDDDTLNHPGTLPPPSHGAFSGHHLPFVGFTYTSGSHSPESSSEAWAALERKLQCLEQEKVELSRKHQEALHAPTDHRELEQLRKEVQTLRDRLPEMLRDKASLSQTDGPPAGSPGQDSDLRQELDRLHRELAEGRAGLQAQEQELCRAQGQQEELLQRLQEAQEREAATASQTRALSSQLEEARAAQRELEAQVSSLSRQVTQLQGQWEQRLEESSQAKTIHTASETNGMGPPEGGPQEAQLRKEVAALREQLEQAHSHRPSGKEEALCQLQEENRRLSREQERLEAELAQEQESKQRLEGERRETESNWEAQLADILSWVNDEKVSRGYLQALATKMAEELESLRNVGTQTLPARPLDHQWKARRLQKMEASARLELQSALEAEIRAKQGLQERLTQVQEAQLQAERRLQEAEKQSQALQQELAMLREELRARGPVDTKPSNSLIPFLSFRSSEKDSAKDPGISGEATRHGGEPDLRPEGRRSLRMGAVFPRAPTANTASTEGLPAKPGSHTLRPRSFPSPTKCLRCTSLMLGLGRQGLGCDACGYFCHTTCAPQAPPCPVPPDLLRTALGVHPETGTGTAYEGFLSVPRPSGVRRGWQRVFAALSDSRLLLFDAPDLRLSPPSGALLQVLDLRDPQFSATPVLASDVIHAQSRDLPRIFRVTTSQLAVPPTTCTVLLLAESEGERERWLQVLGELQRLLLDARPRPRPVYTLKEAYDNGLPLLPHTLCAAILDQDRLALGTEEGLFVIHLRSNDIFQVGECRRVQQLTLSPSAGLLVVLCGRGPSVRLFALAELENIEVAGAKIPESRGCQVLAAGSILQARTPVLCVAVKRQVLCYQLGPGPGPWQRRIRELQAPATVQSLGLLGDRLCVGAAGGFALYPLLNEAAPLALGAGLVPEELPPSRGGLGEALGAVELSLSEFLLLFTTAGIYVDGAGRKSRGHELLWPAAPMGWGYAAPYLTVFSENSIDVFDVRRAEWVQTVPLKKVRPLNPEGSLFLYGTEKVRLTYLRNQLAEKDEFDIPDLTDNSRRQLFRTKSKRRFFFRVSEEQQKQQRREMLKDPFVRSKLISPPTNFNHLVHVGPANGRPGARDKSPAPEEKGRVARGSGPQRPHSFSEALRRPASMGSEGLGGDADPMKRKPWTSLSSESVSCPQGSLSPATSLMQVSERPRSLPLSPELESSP
CAMK2G, sequence (Q13555 whole entry): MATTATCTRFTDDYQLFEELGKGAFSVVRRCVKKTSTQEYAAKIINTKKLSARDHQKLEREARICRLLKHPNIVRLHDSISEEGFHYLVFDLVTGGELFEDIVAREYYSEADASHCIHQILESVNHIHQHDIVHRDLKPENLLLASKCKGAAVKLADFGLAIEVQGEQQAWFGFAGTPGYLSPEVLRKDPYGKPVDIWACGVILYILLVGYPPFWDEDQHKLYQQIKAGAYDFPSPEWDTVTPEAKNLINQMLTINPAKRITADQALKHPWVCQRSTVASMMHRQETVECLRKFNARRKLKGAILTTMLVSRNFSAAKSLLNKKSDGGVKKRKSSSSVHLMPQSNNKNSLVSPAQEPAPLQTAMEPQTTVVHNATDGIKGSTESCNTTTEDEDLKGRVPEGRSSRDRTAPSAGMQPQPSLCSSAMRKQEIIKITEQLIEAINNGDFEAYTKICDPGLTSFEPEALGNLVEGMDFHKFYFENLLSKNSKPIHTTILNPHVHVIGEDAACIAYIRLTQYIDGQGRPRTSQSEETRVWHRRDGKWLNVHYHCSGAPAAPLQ

Regarding `c1ccc2c(c1)Sc1ccccc1N2CCN1CCOCC1` [J54], the remaining binding on ABL1-phosphorylated stood at 71%; at CAMK2G, 100%; at CDK11, 81%; on CLK1, 85%; at CSNK1G2, 93%; on DMPK it was 85%. The remaining binding on DMPK2 amounted to 89%; on EGFR(L858R,T790M) it was 100%; on EGFR(T790M), 96%; at EPHA8, 100%; on EPHB3, 100%; at LATS1, 81%. Besides, the remaining binding is 100% at MAP4K3; 100% at NEK11; 74% on PIK3C2G; 86% on PRKG1; 100% on YANK3; 100% at p38-delta.
